In patent US11395857B2, “Radiolabeled melanocortin 1 receptor-specific alpha-melanocyte-stimulating hormone analogues for imaging or therapy” (PROVINCIAL HEALTH SERVICES AUTHORITY, priority 2018, dated 2022):
Like-named read-outs stand apart in the source and are kept apart here.

How the values were obtained:
B16F10 mouse melanoma = test: Biodistribution of 177Lu-labeled αMSH analogues in mice bearing B16F10 mouse melanoma; format: in vivo, C57BL/6J mice; details: C57BL/6J mice, B16F10 melanoma
Protocol: (§1) The B16-F10 mouse melanoma cells were cultured and inoculated in mice as described in Example 1.
(§2) For biodistribution studies, approximately 1-2 MBq of ^177Lu-labeled αMSH analogues via tail vein under anesthesia. At 1, 4, 24, and 120 h p.i., the mice were euthanized by CO2 inhalation. Organs/tissues were harvested and the radioactivity was measured as described in Example 1.

[1] = as above; format: in vivo, C57BL/6J mice; details: mouse, iv, total radioactivity, C57BL/6J mice, B16F10 melanoma; for tissue uptake at 1 h: 1 h p.i.; for tissue uptake at 4 h: 4 h p.i.; for tissue uptake at 24 h: 24 h p.i.; for tissue uptake at 120 h: 120 h p.i.
Protocol: as §1, §2

[2] = male, seminal glands, read-out: Biodistribution, Seminal glands
[3] = male, testes, read-out: Biodistribution, Testes
[4] = adrenal glands, read-out: Biodistribution, Adrenal glands
[5] = blood, read-out: Biodistribution, Blood
[6] = bone, read-out: Biodistribution, Bone
[7] = brain, read-out: Biodistribution, Brain
[8] = fat, read-out: Biodistribution, Fat
[9] = heart, read-out: Biodistribution, Heart
[10] = intestine, read-out: Biodistribution, Intestine
[11] = kidneys, read-out: Biodistribution, Kidneys

Question: Which “Biodistribution, B16F10 tumour” value (B16F10 mouse melanoma; 1 h p.i.) does the source give for `CCCC[C@H](NC(=O)CN1CCC(NC(=O)CN2CCN(CC(=O)O)CCN(CC(=O)O)CCN(CC(=O)O)CC2)CC1)C(=O)N[C@H]1CC(=O)NCCCC[C@@H](C(N)=O)N(C)C(=O)[C@H](Cc2c[nH]c3ccccc23)NC(=O)[C@H](CCCNC(=N)N)N(C)C(=O)[C@@H](Cc2ccccc2)NC(=O)[C@H](Cc2c[nH]cn2)NC1=O` [^177Lu-labeled CCZ01106, metal not drawn] here?
Answer: 8.25 ± 1.94 % ID/g

Question: And the “Biodistribution, B16F10 tumour” value (B16F10 mouse melanoma; 4 h p.i.)?
Answer: 7.81 ± 2.16 % ID/g

Question: And the “Biodistribution, B16F10 tumour” value (B16F10 mouse melanoma; 24 h p.i.)?
Answer: 3.45 ± 0.30 % ID/g

Question: And the “Biodistribution, B16F10 tumour” value (B16F10 mouse melanoma; 120 h p.i.)?
Answer: 0.49 ± 0.36 % ID/g

Question: What about the “Biodistribution, Blood” value (B16F10 mouse melanoma; 120 h p.i.) of the same molecule?
Answer: 0.00 ± 0.00 % ID/g

Question: What about the “Biodistribution, Brain” value (B16F10 mouse melanoma; 120 h p.i.) of the same molecule?
Answer: 0.00 ± 0.00 % ID/g

Question: What about the “Biodistribution, Fat” value (B16F10 mouse melanoma; 120 h p.i.) of the same molecule?
Answer: 0.00 ± 0.00 % ID/g

Question: And the “Biodistribution, Muscle” value (B16F10 mouse melanoma; 120 h p.i.)?
Answer: 0.00 ± 0.00 % ID/g

Question: And the tissue uptake at 1 h [1, 2]?
Answer: 0.22 ± 0.35 %ID/g

Question: What about the tissue uptake at 4 h [1, 2] of the same molecule?
Answer: 0.02 %ID/g

Question: And the tissue uptake at 24 h [1, 2]?
Answer: 0.01 %ID/g

Question: What about the tissue uptake at 120 h [1, 2] of the same molecule?
Answer: 0.01 ± 0.01 %ID/g

Question: And the tissue uptake at 1 h [1, 3]?
Answer: 0.17 ± 0.06 %ID/g

Question: What about the tissue uptake at 4 h [1, 3] of the same molecule?
Answer: 0.04 %ID/g

Question: And the tissue uptake at 24 h [1, 3]?
Answer: 0.03 %ID/g

Question: What about the tissue uptake at 120 h [1, 3] of the same molecule?
Answer: 0.02 %ID/g

Question: And the tissue uptake at 1 h [1, 4]?
Answer: 0.54 ± 0.28 %ID/g

Question: And the tissue uptake at 4 h [1, 4]?
Answer: 0.13 ± 0.06 %ID/g

Question: What about the tissue uptake at 24 h [1, 4] of the same molecule?
Answer: 0.23 ± 0.18 %ID/g

Question: What about the tissue uptake at 120 h [1, 4] of the same molecule?
Answer: 0.02 ± 0.02 %ID/g

Question: What about the tissue uptake at 1 h [1, 5] of the same molecule?
Answer: 0.49 ± 0.22 %ID/g

Question: What about the tissue uptake at 4 h [1, 5] of the same molecule?
Answer: 0.02 %ID/g

Question: And the tissue uptake at 24 h [1, 5]?
Answer: 0.01 %ID/g

Question: And the tissue uptake at 1 h [1, 6]?
Answer: 0.18 ± 0.04 %ID/g

Question: And the tissue uptake at 4 h [1, 6]?
Answer: 0.07 ± 0.02 %ID/g

Question: What about the tissue uptake at 24 h [1, 6] of the same molecule?
Answer: 0.06 ± 0.01 %ID/g

Question: And the tissue uptake at 120 h [1, 6]?
Answer: 0.04 ± 0.01 %ID/g

Question: What about the tissue uptake at 1 h [1, 7] of the same molecule?
Answer: 0.02 %ID/g

Question: And the tissue uptake at 4 h [1, 7]?
Answer: 0.01 %ID/g

Question: And the tissue uptake at 24 h [1, 7]?
Answer: 0.01 %ID/g

Question: And the tissue uptake at 1 h [1, 8]?
Answer: 0.05 ± 0.02 %ID/g

Question: What about the tissue uptake at 4 h [1, 8] of the same molecule?
Answer: 0.01 ± 0.01 %ID/g

Question: And the tissue uptake at 24 h [1, 8]?
Answer: 0.01 %ID/g

Question: And the tissue uptake at 1 h [1, 9]?
Answer: 0.19 ± 0.07 %ID/g

Question: And the tissue uptake at 4 h [1, 9]?
Answer: 0.03 %ID/g

Question: What about the tissue uptake at 24 h [1, 9] of the same molecule?
Answer: 0.02 %ID/g

Question: And the tissue uptake at 120 h [1, 9]?
Answer: 0.01 %ID/g

Question: And the tissue uptake at 1 h [1, 10]?
Answer: 0.45 ± 0.2 %ID/g

Question: What about the tissue uptake at 4 h [1, 10] of the same molecule?
Answer: 0.11 ± 0.06 %ID/g

Question: What about the tissue uptake at 24 h [1, 10] of the same molecule?
Answer: 0.13 ± 0.04 %ID/g

Question: And the tissue uptake at 120 h [1, 10]?
Answer: 0.06 ± 0.07 %ID/g

Question: And the tissue uptake at 1 h [1, 11]?
Answer: 4.79 ± 0.92 %ID/g

Question: And the tissue uptake at 4 h [1, 11]?
Answer: 3.31 ± 0.66 %ID/g

Question: What about the tissue uptake at 24 h [1, 11] of the same molecule?
Answer: 1.24 ± 0.46 %ID/g
